The text below walks through data of US7332501B2, “Indol-3-yl-carbonyl-spiro-piperidine derivatives as V1a receptor antagonists” (Hoffmann-La Roche Inc., priority 2005, dated 2008).

Structures can show the parent of a compound that is named as a salt.

For the test, the target named is T1, human V1a receptor (Homo sapiens, UniProt P37288).
T1 construct: expressed in transfected cells; host or cells: HEK293 cells, transiently transfected; cell membranes
T1 sequence (P37288 whole entry): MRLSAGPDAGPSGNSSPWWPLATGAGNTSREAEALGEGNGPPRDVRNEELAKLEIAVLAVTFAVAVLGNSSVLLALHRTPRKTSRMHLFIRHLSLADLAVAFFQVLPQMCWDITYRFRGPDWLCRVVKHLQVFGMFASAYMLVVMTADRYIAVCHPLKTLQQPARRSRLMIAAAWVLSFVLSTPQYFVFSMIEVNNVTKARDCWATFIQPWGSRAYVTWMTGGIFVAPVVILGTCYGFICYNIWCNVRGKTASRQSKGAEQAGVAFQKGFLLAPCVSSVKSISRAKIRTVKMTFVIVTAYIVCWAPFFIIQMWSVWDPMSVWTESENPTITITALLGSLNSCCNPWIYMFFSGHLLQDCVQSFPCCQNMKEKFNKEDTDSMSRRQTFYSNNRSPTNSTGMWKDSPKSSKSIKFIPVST
As to the kind of experiment: human V1a receptor binding (3H-Vasopressin SPA, HEK293 membranes). The conditions noted are these: displacement of 4 nM 3H-Vasopressin, membranes of HEK293 cells transiently transfected with human V1a receptor; Ki from IC50 by Cheng-Prussoff. The procedure:
The human V1a receptor was cloned by RT-PCR from total human liver RNA. The coding sequence was subcloned in an expression vector after sequencing to confirm the identity of the amplified sequence. […] Cell membranes were prepared from HEK293 cells transiently transfected with the expression vector and grown in 20 liter fermenters with the following protocol.
50 g cells are resuspended in 30 ml freshly prepared ice cold Lysis buffer (50 mM HEPES, 1 mM EDTA, 10 mM MgCl2 adjusted to pH=7.4+complete cocktail of protease inhibitor (Roche Diagnostics)). The cells are homogenized with Polytron for 1 min and sonicated on ice for 2×2 minutes at 80% intensity (Vibracell sonicator). The preparation is centrifuged 20 min at 500 g at 4° C., the pellet is discarded and the supernatant centrifuged 1 hour at 43,000 g at 4° C. (19,000 rpm). The pellet is resuspended in 12.5 ml Lysis buffer+12.5 ml Sucrose 20% and homogenized using a Polytron for 1-2 min. The protein concentration is determined by the Bradford method and aliquots are stored at −80° C. until use. For binding studies 60 mg Yttrium silicate SPA beads (Amersham) are mixed with an aliquot of membrane in binding buffer (50 mM Tris, 120 mM NaCl, 5 mM KCl, 2 mM CaCl2, 10 mM MgCl2) for 15 minutes with mixing. 50 ul of bead/membrane mixture is then added to each well of a 96 well plate, followed by 50 ul of 4 nM 3H-Vasopressin (American Radiolabeled Chemicals). For total binding measurement 100 ul of binding buffer are added to the respective wells, for non-specific binding 100 ul of […] cold vasopressin and for compound testing 100 ul of a serial dilution of each compound in 2% DMSO. The plate is incubated 1 h at room temperature, centrifuged 1 min at 1000 g and counted on a Packard Top-Count. Non-specific binding counts are subtracted from each well and data is normalized to the maximum specific binding set at 100%. To calculate an IC 50 the curve is fitted using a non-linear regression model (XLfit), and the Ki is calculated using the Cheng-Prussoff equation.
As to `O=C1OC2(CCN(C(=O)c3cn(CC(=O)N4CCOCC4)c4cc(Cl)ccc34)CC2)c2ccccc21` [Example 105, 1′-{[6-Chloro-1-(2-morpholin-4-yl-2-oxoethyl)-1H-indol-3-yl]carbonyl}-3H-spiro[2-benzofuran-1,4′-piperidin]-3-one], the Ki stood at 2.3 nM.

Compound `Cc1c(C(=O)N2CCC3(C=Cc4ccccc43)CC2)c2ccccc2n1Cc1ccccc1` [Example 1, 1′-[(1-benzyl-2-methyl-1H-indol-3-yl)carbonyl]spiro[indene-1,4′-piperidine]] registered a Ki of 6.8 nM.

`O=C1OC2(CCN(C(=O)c3cn(Cc4cccnc4)c4cc(Cl)ccc34)CC2)c2ccccc21` [Example 172, 1′-{[6-Chloro-1-(pyridin-3-ylmethyl)-1H-indol-3-yl]carbonyl}-3H-spiro[2-benzofuran-1,4′-piperidin]-3-one] had a Ki of 3 nM. Consider `O=C(c1cn(Cc2cnccn2)c2cc(Cl)ccc12)N1CCC2(CC1)OCc1ccccc12` [Example 234, 1′-{[6-Chloro-1-(pyrazin-2-ylmethyl)-1H-indol-3-yl]carbonyl}-3H-spiro[2-benzofuran-1,4′-piperidine]], for which the inhibitory constant (Ki) is 1.8 nM. As to `Cc1cc(Cn2cc(C(=O)N3CCC4(CC3)OCc3ccccc34)c3ccc(Cl)cc32)on1` [Example 239, 1′-({6-Chloro-1-[(3-methylisoxazol-5-yl)methyl]-1H-indol-3-yl}carbonyl)-3H-spiro[2-benzofuran-1,4′-piperidine]], the Ki came out at 2.3 nM. The Ki values of the last two compounds are within 1.5-fold of each other. In the case of `NC(=O)Cn1cc(C(=O)N2CCC3(CC2)OCc2ccccc23)c2ccc(Cl)cc21` [Example 250, 2-[6-Chloro-3-(1′H,3H-spiro[2-benzofuran-1,4′-piperidin]-1′-ylcarbonyl)-1H-indol-1-yl]acetamide] it was 4.1 nM; in that of `O=C1OC2(CCN(C(=O)c3cn(CC4CNCCO4)c4cc(Cl)ccc34)CC2)c2ccccc21` (stereo not drawn) [Example 198, 1′-{[6-Chloro-1-(morpholin-2-ylmethyl)-1H-indol-3-yl]carbonyl}-3H-spiro[2-benzofuran-1,4′-piperidin]-3-one hydrochloride], 3.3 nM. For the compound `Cc1c(C(=O)N2CCC3(CC2)OC(=O)c2cc(F)ccc23)c2ccccc2n1Cc1ccccc1` [Example 23, 1′-[(1-benzyl-2-methyl-1H-indol-3-yl)carbonyl]-5-fluoro-3H-spiro[2-benzofuran-1,4′-piperidin]-3-one], the Ki stood at 11 nM. The compound `Cc1nc(Cn2cc(C(=O)N3CCC4(CC3)OCc3ccccc34)c3ccc(Cl)cc32)c(C2CC2)o1` [Example 237] gave an inhibition constant (Ki) of 4 nM. Regarding `CN(C)CCNC(=O)Cn1cc(C(=O)N2CCC3(CC2)OC(=O)c2ccccc23)c2ccc(Cl)cc21` [Example 119, 2-{6-Chloro-3-[(3-oxo-1′H,3H-spiro[2-benzofuran-1,4′-piperidin]-1′-yl)carbonyl]-1H-indol-1-yl}-N-[2-(dimethylamino)ethyl]acetamide], the Ki was determined as 24 nM. On to `O=C(c1cn(CCNO)c2cc(Cl)ccc12)N1CCC2(CC1)OCc1ccccc12` [Example 262, 2-[6-Chloro-3-(1′H,3H-spiro[2-benzofuran-1,4′-piperidin]-1′-ylcarbonyl)-1H-indol-1-yl]-N-hydroxyethanamine], for which the Ki is 4.3 nM.

Take `O=C1OC2(CCN(C(=O)c3cn(CC(=O)N4CCCCC4)c4cc(Cl)ccc34)CC2)c2ccccc21` [Example 104, 1′-{[6-Chloro-1-(2-oxo-2-piperidin-1-ylethyl)-1H-indol-3-yl]carbonyl}-3H-spiro[2-benzofuran-1,4′-piperidin]-3-one]: the Ki came out at 1.3 nM. Then `CN(C)CCNC(=O)c1[nH]c2cc(Cl)ccc2c1C(=O)N1CCC2(CC1)OC(=O)c1cc(F)ccc12` [Example 26, 6-chloro-N-[2-(dimethylamino)ethyl]-3-[(5-fluoro-3-oxo-1′H,3H-spiro[2-benzofuran-1,4′-piperidin]-1′-yl)carbonyl]-1H-indole-2-carboxamide], with 39.4 nM; and `COc1ccc2c(c1)C(=O)OC21CCN(C(=O)c2c(C)n(Cc3ccccc3)c3ccccc23)CC1` [Example 13, 1′-[(1-benzyl-2-methyl-1H-indol-3-yl)carbonyl]-5-methoxy-3H-spiro[2-benzofuran-1,4′-piperidin]-3-one], with 9.5 nM.

In turn, `O=C(c1cn(CCN2CCCC2)c2cc(Cl)ccc12)N1CCC2(CC1)COc1ccccc12` [Example 82, 1′-{[6-chloro-1-(2-pyrrolidin-1-ylethyl)-1H-indol-3-yl]carbonyl}spiro[1-benzofuran-3,4′-piperidine]] returned a Ki of 12.9 nM.

The compound `O=C1OC2(CCN(C(=O)c3cn(C(=O)c4cc(F)cc(F)c4)c4cc(Cl)ccc34)CC2)c2ccccc21` [Example 130, 1′-{[6-Chloro-1-(3,5-difluorobenzoyl)-1H-indol-3-yl]carbonyl}-3H-spiro[2-benzofuran-1,4′-piperidin]-3-one] returned a Ki of 11.1 nM.

For `O=C1OC2(CCN(C(=O)c3cn(Cc4cccc(F)c4)c4cc(Cl)ccc34)CC2)c2ccc(Br)cc21` [Example 151, 5-Bromo-1′-{[6-chloro-1-(3-fluorobenzyl)-1H-indol-3-yl]carbonyl}-3H-spiro[2-benzofuran-1,4′-piperidin]-3-one], the affinity corresponds to a Ki of 4.8 nM.

`COCc1ncc(Cn2cc(C(=O)N3CCC4(CC3)OC(=O)c3cc(F)ccc34)c3ccc(Cl)cc32)c(N)n1` [Example 162, 1′-[(1-{[4-Amino-2-(methoxymethyl)pyrimidin-5-yl]methyl}-6-chloro-1H-indol-3-yl)carbonyl]-5-fluoro-3H-spiro[2-benzofuran-1,4′-piperidin]-3-one] registered a Ki of 65.3 nM. Turning to `Cc1cc(C)cc(Cn2c(C)c(C(=O)N3CCC4(CC3)OCc3ccccc34)c3ccccc32)c1` [Example 49, 1′-{[1-(3,5-dimethylbenzyl)-2-methyl-1H-indol-3-yl]carbonyl}-3H-spiro[2-benzofuran-1,4′-piperidine]], the inhibitory constant (Ki) came out at 2.4 nM. In the case of `CN(C)C(=O)c1[nH]c2cc(Cl)ccc2c1C(=O)N1CCC2(CC1)OC(=O)c1cc(F)ccc12` [Example 29, 6-chloro-3-[(5-fluoro-3-oxo-1′H,3H-spiro[2-benzofuran-1,4′-piperidin]-1′-yl)carbonyl]-N,N-dimethyl-1H-indole-2-carboxamide] it was 10.1 nM. The compound `CCN(CC)CCn1cc(C(=O)N2CCC3(CC2)COc2ccccc23)c2ccc(Cl)cc21` [Example 85, 2-[6-chloro-3-(1′H-spiro[1-benzofuran-3,4′-piperidin]-1′-ylcarbonyl)-1H-indol-1-yl]-N,N-diethylethanamine] registered a Ki of 10.2 nM. This Ki and that of the compound before are within 1.5-fold of each other. For `CN1CCC[C@H](Cn2cc(C(=O)N3CCC4(CC3)OCc3ccccc34)c3ccc(Cl)cc32)C1` [Example 265, 1′-[(6-Chloro-1-{[(3S)-1-methylpiperidin-3-yl]methyl}-1H-indol-3-yl)carbonyl]-3H-spiro[2-benzofuran-1,4′-piperidine]], the affinity corresponds to a Ki of 1.4 nM. As for `O=C1OC2(CCN(C(=O)c3cn(Cc4cccc(F)c4)c4cc(Cl)ccc34)CC2)c2ccccc21` [Example 134, 1′-{[6-Chloro-1-(3-fluorobenzyl)-1H-indol-3-yl]carbonyl}-3H-spiro[2-benzofuran-1,4′-piperidin]-3-one], the affinity corresponds to a Ki of 1 nM. The Ki values of the last two compounds are within 1.5-fold of each other. In the case of `O=C(c1cn(Cc2ccccn2)c2cc(Cl)ccc12)N1CCC2(CC1)OCc1ccccc12` [Example 231, 1′-{[6-Chloro-1-(pyridin-2-ylmethyl)-1H-indol-3-yl]carbonyl}-3H-spiro[2-benzofuran-1,4′-piperidine]] it was 1.6 nM.

Broadly, the Ki is the equilibrium dissociation constant of an inhibitor or competing ligand from its target. Low readings indicate tighter binding, high ones weaker binding.
